Data reported in patent publication US5593970A, “Heterocyclic anthracycline analogs” (priority 1994, dated 1997).
“Also recorded” adds a separate entry of the source. Where two headings read alike, the source gives them in different places.

Assays:
Ovarian = test: NCI assay, average per cancer type; details: Ovarian
MCF7/ADR = test: Soft agar colony formation disk diffusion assay; type: cell-based, human
Outline: (§1)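 Cells in 0.4% Noble agar top layer over 0.8% agar base; compound in DMSO/water applied on 6.5 mm filter disk. Incubated 37 °C, 5% CO2 for 10–20 days. Activity measured as inhibition zone from disk edge to nearest colonies (>50 cells), by ocular micrometer.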

LS180 = test: Soft agar colony formation disk diffusion assay; type: cell-based, human
Outline: as §1

MCF7 = test: Soft agar colony formation disk diffusion assay; type: cell-based, human
Outline: as §1

SC Lung = test: NCI assay, average per cancer type; details: SC Lung
tumor cell lines [1] = test: Tumor clonogenic assay, overall; type: cell-based
Excerpt: For the IN VITRO test, we chose a tumor clonogenic assay which measures the ability of tumoral cells to form colonies (multicellular growth units) as a result of cell division in semisolid agar support (2,3). A more elaborate version of this fundamental assay, the soft agar colony formation disk diffusion assay was used. This assay defines the relative activity of one particular drug versus a tumoral cell line type. The effect of the test drug against tumoral cells could be measured by its inhibitory capacity against colony formation after the delivery of the compound, in different concentrations on an filter disk(4).
A modified technique of this assay was used in order to investigate the antiproliferative activity of candidate compounds. Tumoral cells from solid tumors and ascitic lines were plated separately in a two layer agar matrix. Cell lines to be tested were suspended in an upper layer of 0.4% Noble agar (Difco#00142-01) in RPMI-1066 (Gibco#3201875) at a yield varying between 10^4 to 2×10^5 cells per 60 mm Petri dish. Plating efficiency was determined for each line in order to achieve an optimal number of colonies per dish. Plates were examined before drug administration to confirm a uniform dispersion of single cells. The bottom layer consisted of 0.8% Noble agar, 0.8% Tryptic Soy Broth (difco#0037001)in CMRL-1066/Fischer's. The bottom layers were used within 2 and 9 days of preparation. Plated dishes (bottom layer of agar, upper layer of cells and administered drug were incubated in humidified atmosphere at 37° C., 5% CO2 for 10-20 days depending upon the time necessary to observe adequate colonies (defined as a cell aggregate of more than 50 cells) both control and drug inhibited. Drugs were administered on a paper filter disk (Whatman No. 1) of 6.5 mm diameter placed on the upper layer at 1/3 distance from the edge of the dish. The anti-clonogenic activity of the compounds was measured as the zone of inhibition from the disk edge to the most proximal colonies. This zone of inhibition was checked on an inverted microscope (40×) and was measured with a micrometer mounted in the eyepiece. The ocular micrometer was calibrated with a stage micrometer set for a particular combination of ocular and objective lenses.
200 units of activity are equivalent to 6.5 mm distance from the disk edge to the first colonies (5). […] We made a modification of the initial technique by not plating a solid tumor and a leukemia simultaneously in the same Petri dish. Anti-clonogenic tests performed on leukemia cell line have helped in the discovery of the majority of current clinically used cytostatic drugs. Our tests on solid tumor lines (animal or human) may help define active compounds with solid tumor specificity. This specific activity would be indicated by a higher level of cloning inhibition in solid tumors versus leukemias (6).

NSC Lung = test: NCI assay, average per cancer type; details: NSC Lung
Leukemia = test: NCI assay, average per cancer type; details: Leukemia
CNS = test: NCI assay, average per cancer type; details: CNS
tumor cell lines [2] = test: NCI sulforhodamine B assay, all cell lines
SKOV3 = test: Microculture tetrazolium assay; type: cell-based; details: SKOV3; read-out: IC50
T47D = test: Microculture tetrazolium assay; type: cell-based; details: read-out: IC50

## Methyl(11-hydroxy-5,12-dioxo-3,4,5,12-tetrahydroanthraceno[2,3-c]pyran-3-yl)ketone and Methyl(5-hydroxy-5,12-dioxo-3,4,5,12-tetrahydroanthraceno[2,3-c]pyran-3-yl)ketone [BCH-687]
Ovarian
  Average LOG10 GI50: -4.94 ± 0.37 log molar
MCF7/ADR
  cross resistance with adriamycin, MCF7/ADR vs MCF7: lack of cross resistance with adriamycin
MCF7/ADR; 10 μg/DISK
  zone of inhibition: 61.0 ± 6.1 Zone Units
MCF7/ADR; 100 μg/DISK
  zone of inhibition: 140.0 ± 32.3 Zone Units
LS180; 10 μg/DISK
  zone of inhibition: 152.5 ± 30.5 Zone Units
LS180; 100 μg/DISK
  zone of inhibition: 233.8 ± 17.6 Zone Units
MCF7; 10 μg/DISK
  zone of inhibition: 71.1 ± 9.3 Zone Units
MCF7; 100 μg/DISK
  zone of inhibition: 152.5 ± 50.0 Zone Units
SC Lung
  Average LOG10 GI50: -5.09 ± 0.25 log molar
Tumor cell lines [1]
  activity and specificity in words: most active; also recorded: responded well
NSC Lung
  Average LOG10 GI50: -4.81 ± 0.35 log molar
Leukemia
  Average LOG10 GI50: -4.91 ± 0.12 log molar
CNS
  Average LOG10 GI50: -4.59 ± 0.16 log molar
Tumor cell lines [2]
  antiproliferative and cytotoxic activity in words: significant antiproliferative (GI50) and cytotoxic (LC50) activities in solid tumors
Tumor cell lines [2]; all cell lines
  Log10 GI50, Mean / MG-MID: -4.85 log molar
  Log10 TGI, Mean / MG-MID: -4.37 log molar

## 3-(2-acetoxy-1-propeneketal)aceto-6-acetoxy-1-hydroxy-1,2,3,4-tetrahydro-(2-oxygen)naphtacene-5,12-dione and 3-(2-acetoxy-1-propeneketal)-aceto-11-acetoxy-1-hydroxy-1,2,3,4-tetrahydro-(2-oxygen)naphtacene-5,12-dione [BCH-710]
SKOV3
  IC50: 3.98 µM
MCF7/ADR; 10 μg/DISK
  zone of inhibition: 0 Zone Units
MCF7/ADR; 100 μg/DISK
  zone of inhibition: 106.0 ± 21.9 Zone Units
LS180; 10 μg/DISK
  zone of inhibition: 48.5 ± 26.1 Zone Units
LS180; 100 μg/DISK
  zone of inhibition: 110.0 ± 50.2 Zone Units
MCF7; 10 μg/DISK
  zone of inhibition: 0 Zone Units
MCF7; 100 μg/DISK
  zone of inhibition: 24.0 ± 8.4 Zone Units
Tumor cell lines [1]
  activity and specificity in words: most active
Tumor cell lines [1]; listed as BCH 710
  activity and specificity in words: specificity for the MATB/ADR rat breast ADR resistant adenocarcinoma and mouse ovarian reticulum cell sarcoma
T47D
  IC50: 3.57 µM
